From US11731958B2, “Carboxamide compounds and uses thereof” (Incyte Corporation, priority 2018, dated 2023)

These compounds were tested against HPK1 (Homo sapiens (Human), UniProt Q92918) (assay: HPK1 Kinase Binding Assay). Conditions: LanthaScreen tracer 222 binding, active HPK1, one hour at 25° C.
Description: A stock solution of 1 mM test compound was prepared in DMSO. The compound plate was prepared by 3-fold and 11-point serial dilutions. 0.1 μL of the compound in DMSO was transferred from the compound plate to the white 384 well polystyrene plates. The assay buffer contained 50 mM HEPES, pH 7.5, 0.01% Tween-20, 5 mM MgCl2, 0.01% BSA, and 5 mM DTT. 5 μL of 4 nM active HPK1 (SignalChem M23-11G) prepared in the buffer was added to the plate. The enzyme concentration given was based on the given stock concentration reported by the vender. […] After one hour incubation at 25° C., the plates were read on a PHERAstar FS plate reader (BMG Labtech). Ki values were determined.

HPK1, sequence (Q92918 1-346): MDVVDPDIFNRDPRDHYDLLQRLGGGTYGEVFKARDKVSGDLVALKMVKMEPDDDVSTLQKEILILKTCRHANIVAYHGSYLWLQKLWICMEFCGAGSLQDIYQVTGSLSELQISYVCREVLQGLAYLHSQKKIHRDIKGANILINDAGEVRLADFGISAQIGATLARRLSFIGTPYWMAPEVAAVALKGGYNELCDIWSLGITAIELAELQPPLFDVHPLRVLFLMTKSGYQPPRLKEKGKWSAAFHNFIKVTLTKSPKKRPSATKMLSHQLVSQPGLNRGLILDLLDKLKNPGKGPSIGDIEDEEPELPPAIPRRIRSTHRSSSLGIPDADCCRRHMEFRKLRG

Ki, < 100 nM:
COc1cccc(F)c1-c1nccc(C(=O)Nc2ccc(-c3c(C)nn(C)c3C)cc2N2C[C@@H]3C[C@H]2CN3)n1 [Example 27, N-(2-((1S,4S)-2,5-Diazabicyclo[2.2.1]heptan-2-yl)-4-(1,3,5-trimethyl-1H-pyrazol-4-yl)phenyl)-2-(2-fluoro-6-methoxyphenyl)pyrimidine-4-carboxamide]
COc1cccc(F)c1-c1nccc(C(=O)Nc2cc(F)c(N3CCOCC3)cc2N2C[C@@H]3C[C@H]2CN3)n1 [Example 28, N-(2-((1S,4S)-2,5-Diazabicyclo[2.2.1]heptan-2-yl)-5-fluoro-4-morpholinophenyl)-2-(2-fluoro-6-methoxyphenyl)pyrimidine-4-carboxamide]
COc1cccc(F)c1-c1nccc(C(=O)Nc2cc(F)c(N3CCC3)cc2N2C[C@@H]3C[C@H]2CN3)n1 [Example 29, N-(4-(Azetidin-1-yl)-2-((1S,4S)-2,5-diazabicyclo[2.2.1]heptan-2-yl)-5-fluorophenyl)-2-(2-fluoro-6-methoxyphenyl)pyrimidine-4-carboxamide]
COc1cccc(F)c1-c1nccc(C(=O)Nc2cc(F)c(CN3CCOCC3)cc2N2C[C@@H]3C[C@H]2CN3)n1 [Example 30, N-(2-((1S,4S)-2,5-Diazabicyclo[2.2.1]heptan-2-yl)-5-fluoro-4-(morpholinomethyl)phenyl)-2-(2-fluoro-6-methoxyphenyl)pyrimidine-4-carboxamide]
